“Also recorded” adds a separate entry of the source.
How the values were obtained:
[1] = target: electrophorus electricus acetylcholinesterase (eeAChE) (Electrophorus electricus, UniProt O42275); test: biochemical; format: biochemical
[2] = target: equine serum butyrylcholinesterase (eqBuChE) (Equus caballus, UniProt P81908); test: biochemical; format: biochemical
[3] = target: T1, MAO-A (Rattus norvegicus, UniProt P21396); test: Time-dependence of MAO-A inhibition (pre-incubation times); format: biochemical
T1 construct: from tissue; host or cells: rat brain homogenate per the methods
T1 sequence (P21396 1-526): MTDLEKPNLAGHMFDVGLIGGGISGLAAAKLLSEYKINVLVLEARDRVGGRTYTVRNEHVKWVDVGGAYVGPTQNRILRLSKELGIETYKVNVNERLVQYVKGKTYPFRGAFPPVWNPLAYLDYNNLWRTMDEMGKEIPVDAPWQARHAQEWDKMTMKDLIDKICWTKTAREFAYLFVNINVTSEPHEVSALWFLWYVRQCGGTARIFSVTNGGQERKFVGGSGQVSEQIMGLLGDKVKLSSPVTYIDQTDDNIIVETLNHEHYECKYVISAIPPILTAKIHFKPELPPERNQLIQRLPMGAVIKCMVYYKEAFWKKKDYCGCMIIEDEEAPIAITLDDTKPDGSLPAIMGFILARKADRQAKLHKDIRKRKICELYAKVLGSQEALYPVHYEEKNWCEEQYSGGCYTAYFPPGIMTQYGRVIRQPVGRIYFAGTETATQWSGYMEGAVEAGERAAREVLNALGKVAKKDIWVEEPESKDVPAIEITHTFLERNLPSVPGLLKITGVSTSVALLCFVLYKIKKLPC
Description: (§1) Lineweaver-Burk reciprocal plots of initial velocity and substrate concentrations (0.1-1 mM) are presented. […] Lineweaver-Burk reciprocal plots of initial velocity and substrate concentrations (0.1-1 mM) are presented. […] Lineweaver-Burk reciprocal plots of initial velocity and substrate concentrations (0.1-1 mM) are presented. […] Three consecutive centrifuges were performed with buffer. […] 5 µM). All solution were made using Tris buffer pH7.4. […] 5 µM). All solution were made using Tris buffer pH7.4. […] 5 µM). All solution were made using Tris buffer pH7.4. Spectra were obtained after a Short-time incubation
(§2) Independent inhibition assays were also performed at different pre-incubation periods for both two MAO isoforms (Figure 6). […]

[4] = target: T2, MAO-B (Rattus norvegicus, UniProt P19643); test: Time-dependence of MAO-B inhibition (pre-incubation times); format: biochemical
T2 construct: from tissue; host or cells: rat brain homogenate per the methods
T2 sequence (P19643 1-520): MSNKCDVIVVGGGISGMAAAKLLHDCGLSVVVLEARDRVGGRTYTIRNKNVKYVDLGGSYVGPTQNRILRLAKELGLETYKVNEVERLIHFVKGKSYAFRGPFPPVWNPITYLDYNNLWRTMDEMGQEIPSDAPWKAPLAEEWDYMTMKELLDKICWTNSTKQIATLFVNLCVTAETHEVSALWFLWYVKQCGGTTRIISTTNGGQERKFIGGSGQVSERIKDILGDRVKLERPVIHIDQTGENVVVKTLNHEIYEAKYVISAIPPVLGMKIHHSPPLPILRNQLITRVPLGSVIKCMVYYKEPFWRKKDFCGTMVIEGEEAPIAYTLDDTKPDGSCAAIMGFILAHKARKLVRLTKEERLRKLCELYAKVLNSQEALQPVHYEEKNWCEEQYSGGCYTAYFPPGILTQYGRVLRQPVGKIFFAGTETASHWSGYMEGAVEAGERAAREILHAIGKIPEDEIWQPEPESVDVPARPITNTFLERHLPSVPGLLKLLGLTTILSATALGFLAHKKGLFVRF
Description: as §1, §2

[5] = Metal binding assay, spectrophotometric detection of Cu(II) complex; format: physicochemical; details: 10 µM, Tris buffer pH7.4, Cu(SO4) 6.25 and 12.5 µM, few minutes after addition
Description: as §1
(§3) It is known that 8-quinolinol is a strong chelator for biometals such iron and copper. This is an important precondition for the antioxidative-type drugs because it is the excessive iron stores and iron-mediated generation of free radicals in the brain that are thought to be associated with neurodegenerative diseases. Therefore, only chelators with a higher selectivity for iron over copper are expected to chelate iron instead of copper and have potential neuroprotective effects. […] A spectrophotometric method is used for measurement of the copper/iron-complexes stability constants of the compounds.
(§4) The metal binding assay was performed by the spectrophotometric detection of the formation of Fe(III)- and Cu(II)-6 complex.

[6] = Metal binding assay, spectrophotometric detection of Fe(III) complex; format: physicochemical; details: 10 µM, Tris buffer pH7.4, Fe2(SO4)3 6.25 and 12.5 µM
Description: as §1, with “Spectra were obtained after a Short-time incubation” left out
as §3, §4

[7] = target: T3, ratMAO-A (Rattus norvegicus, UniProt P21396); test: Kinetic study of MAO-A inhibition (Lineweaver-Burk plots); format: biochemical; design: from tissue; host or cells: rat brain homogenate per the methods
T3 sequence (P21396 1-526): T1 sequence (P21396 1-526)
Description: as §1

[8] = target: T4, ratMAO-B (Rattus norvegicus, UniProt P19643); test: Kinetic study of MAO-B inhibition (Lineweaver-Burk plots); format: biochemical; design: from tissue; host or cells: rat brain homogenate per the methods
T4 sequence (P19643 1-520): T2 sequence (P19643 1-520)
Description: as §1

[9] = 20 µM, pre-incubation times 0-360 min
[10] = Lineweaver-Burk reciprocal plots
[11] = estimated from the slopes of double reciprocal plots

Chain of equine serum butyrylcholinesterase (eqBuChE) (P81908 whole entry): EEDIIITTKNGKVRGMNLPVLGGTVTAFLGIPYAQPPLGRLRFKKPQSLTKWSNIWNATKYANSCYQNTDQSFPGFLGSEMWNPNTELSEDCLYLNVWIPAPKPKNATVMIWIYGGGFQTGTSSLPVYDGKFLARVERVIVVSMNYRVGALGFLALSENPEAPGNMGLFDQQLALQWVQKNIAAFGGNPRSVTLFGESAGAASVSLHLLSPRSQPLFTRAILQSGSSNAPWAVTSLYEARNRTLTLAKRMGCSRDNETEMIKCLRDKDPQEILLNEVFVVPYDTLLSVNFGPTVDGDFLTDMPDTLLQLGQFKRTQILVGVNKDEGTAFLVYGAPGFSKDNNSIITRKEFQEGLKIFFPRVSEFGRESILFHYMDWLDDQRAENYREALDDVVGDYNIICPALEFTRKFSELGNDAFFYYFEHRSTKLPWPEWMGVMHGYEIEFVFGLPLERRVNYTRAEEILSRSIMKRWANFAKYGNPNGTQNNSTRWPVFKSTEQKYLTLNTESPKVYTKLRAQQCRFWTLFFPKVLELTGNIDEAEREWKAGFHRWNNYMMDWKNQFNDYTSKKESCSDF
Chain of electrophorus electricus acetylcholinesterase (eeAChE) (O42275 24-633): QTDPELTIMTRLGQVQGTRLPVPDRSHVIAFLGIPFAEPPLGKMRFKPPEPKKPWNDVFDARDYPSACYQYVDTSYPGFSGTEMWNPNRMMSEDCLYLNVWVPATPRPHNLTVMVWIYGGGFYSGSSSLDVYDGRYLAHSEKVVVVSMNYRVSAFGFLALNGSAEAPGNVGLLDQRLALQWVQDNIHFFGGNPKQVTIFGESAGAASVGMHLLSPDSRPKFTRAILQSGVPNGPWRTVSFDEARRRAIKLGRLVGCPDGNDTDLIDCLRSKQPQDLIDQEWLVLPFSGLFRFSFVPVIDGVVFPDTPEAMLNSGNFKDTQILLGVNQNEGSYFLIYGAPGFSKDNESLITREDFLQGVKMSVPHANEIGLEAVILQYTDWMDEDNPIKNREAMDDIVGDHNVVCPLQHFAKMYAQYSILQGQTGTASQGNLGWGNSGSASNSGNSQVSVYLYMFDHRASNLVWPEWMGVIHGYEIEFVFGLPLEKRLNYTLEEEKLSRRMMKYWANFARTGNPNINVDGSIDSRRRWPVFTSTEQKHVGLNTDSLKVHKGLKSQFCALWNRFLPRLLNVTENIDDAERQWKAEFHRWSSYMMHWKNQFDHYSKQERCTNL

C#CCN(Cc1ccc(O)c2ncccc12)C(C#N)CCC1CCN(Cc2ccccc2)CC1 (stereo not drawn) [Compound 6, 4-(1-benzylpiperidin-4-yl)-2-(((8-hydroxyquinolin-5-yl)methyl)(prop-2-yny)amino)butanenitrile]
IC50 [1]: 1.77 ± 0.1 µM | fold more active than M-30 for the inhibition of AChE ([1]; compared with M-30): 64 fold | fold more active than donepezil 1 for eqBuChE inhibition [2]: 4.5 fold | IC50 ([2]; 20 minutes incubation at 37°C, mean ± standard error of the mean, read-out: IC50 eqBuChE): 1.63 ± 0.25 µM | BuChE/ AChE ([2]; ratio of IC50 values): 0.92 | pre-incubation period to complete MAO-A activity inhibition [3, 9]: ≥ 180 min | time-dependence of MAO-A inhibition [3, 9]: irreversible behaviour; also recorded: time-dependent | IC50 ([3]; pre-incubation time 0 min): 29.1 µM | IC50 ([3]; pre-incubation time 30 min): 5.8 µM | IC50 ([3]; pre-incubation time 60 min): 2.3 µM | IC50 ([3]; pre-incubation time 240 min): 0.7 µM | pre-incubation period to complete MAO-B activity inhibition [4, 9]: ≥ 180 min | time-dependence of MAO-B inhibition [4, 9]: irreversible behaviour; also recorded: time-dependent | IC50 ([4]; pre-incubation time 0 min): 61.7 µM | IC50 ([4]; pre-incubation time 30 min): 9.3 µM | IC50 ([4]; pre-incubation time 60 min): 3.3 µM | IC50 ([4]; pre-incubation time 240 min): 1.2 µM | formation of Cu(II)-6 complex, UV-vis spectrum change [5]: The 240 nm-band completely dissapeared while a new one appeared at 275 nm | formation of Fe(III)-6 complex, UV-vis spectrum change ([6]; few minutes after addition): no significative changes in the spectrum were observed | formation of Fe(III)-6 complex, UV-vis spectrum change ([6]; overnight incubation): bathocromic shift of the 240nm-band to the appearance of another one at 250nm | type of MAO-A inhibition mechanism [7, 10]: non-competitive inhibition | Ki [7, 11]: 8.41 ± 1.32 µM | type of MAO-B inhibition mechanism [8, 10]: non-competitive inhibition | Ki [8, 11]: 10.8 ± 2.43 µM

— patent EP2727916A1, “Neuroprotective multi-target directed drugs” (Universitat Autònoma de Barcelona, priority 2012, dated 2014)
